Experimental data: ChEMBL document CHEMBL4507311, “Data for DCP probe A-1155463” (2021)

What was measured:
[1] = target: Calcium/calmodulin-dependent protein kinase type II subunit gamma (Homo sapiens) (UniProt Q13555); conditions: Compound concentration 1000.0 nM
[2] = target: Serine/threonine-protein kinase Nek6 (Homo sapiens) (UniProt Q9HC98); conditions: Compound concentration 1000.0 nM
[3] = target: Mitogen-activated protein kinase kinase kinase kinase 3 (Homo sapiens) (UniProt Q8IVH8); conditions: Compound concentration 1000.0 nM
[4] = target: Serine/threonine-protein kinase 24 (Homo sapiens) (UniProt Q9Y6E0); conditions: Compound concentration 1000.0 nM
Chain of Serine/threonine-protein kinase 24 (Homo sapiens) (Q9Y6E0 whole entry, looked up): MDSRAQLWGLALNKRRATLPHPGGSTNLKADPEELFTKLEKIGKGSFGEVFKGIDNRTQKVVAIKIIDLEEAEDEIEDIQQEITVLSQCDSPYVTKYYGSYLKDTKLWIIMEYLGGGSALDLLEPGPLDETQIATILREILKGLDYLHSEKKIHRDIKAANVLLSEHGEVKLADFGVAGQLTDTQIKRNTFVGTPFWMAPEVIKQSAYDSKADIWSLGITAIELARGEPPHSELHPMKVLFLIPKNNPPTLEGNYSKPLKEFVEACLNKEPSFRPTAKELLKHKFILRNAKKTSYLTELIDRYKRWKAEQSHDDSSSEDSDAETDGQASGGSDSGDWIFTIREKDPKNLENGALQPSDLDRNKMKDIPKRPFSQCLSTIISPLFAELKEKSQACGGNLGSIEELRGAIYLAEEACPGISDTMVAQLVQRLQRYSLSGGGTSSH

[5] = target: Myosin light chain kinase (Homo sapiens) (UniProt Q32MK0); conditions: Compound concentration 1000.0 nM
[6] = system: Serine/threonine-protein kinase B-raf (Homo sapiens), P15056 [V600E]; conditions: Compound concentration 1000.0 nM
[7] = target: SRSF protein kinase 2 (Homo sapiens) (UniProt P78362); conditions: Compound concentration 1000.0 nM
Chain of SRSF protein kinase 2 (Homo sapiens) (P78362 whole entry, looked up): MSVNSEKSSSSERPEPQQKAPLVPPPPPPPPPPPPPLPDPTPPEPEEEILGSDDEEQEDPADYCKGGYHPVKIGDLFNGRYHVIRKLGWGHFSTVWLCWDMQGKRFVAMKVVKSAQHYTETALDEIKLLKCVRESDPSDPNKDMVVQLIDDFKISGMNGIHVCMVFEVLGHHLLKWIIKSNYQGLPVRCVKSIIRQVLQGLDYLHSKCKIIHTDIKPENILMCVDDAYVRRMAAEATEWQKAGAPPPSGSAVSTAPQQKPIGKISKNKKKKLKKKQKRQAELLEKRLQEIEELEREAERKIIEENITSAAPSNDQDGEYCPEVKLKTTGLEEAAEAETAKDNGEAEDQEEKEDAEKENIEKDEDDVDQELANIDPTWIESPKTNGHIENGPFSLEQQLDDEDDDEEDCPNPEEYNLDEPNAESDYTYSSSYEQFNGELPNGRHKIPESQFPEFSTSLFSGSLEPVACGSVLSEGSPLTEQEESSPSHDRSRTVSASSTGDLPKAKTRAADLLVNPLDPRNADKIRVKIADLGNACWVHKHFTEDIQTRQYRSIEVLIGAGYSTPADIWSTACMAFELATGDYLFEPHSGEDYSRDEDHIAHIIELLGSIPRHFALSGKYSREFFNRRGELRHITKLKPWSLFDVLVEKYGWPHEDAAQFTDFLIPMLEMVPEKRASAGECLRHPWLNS

[8] = target: Tyrosine-protein kinase JAK2 (Homo sapiens) (UniProt O60674); conditions: Compound concentration 1000.0 nM
[9] = target: Calcium/calmodulin-dependent protein kinase type 1B (Homo sapiens) (UniProt Q6P2M8); conditions: Compound concentration 1000.0 nM
Chain of Calcium/calmodulin-dependent protein kinase type 1B (Homo sapiens) (Q6P2M8 whole entry): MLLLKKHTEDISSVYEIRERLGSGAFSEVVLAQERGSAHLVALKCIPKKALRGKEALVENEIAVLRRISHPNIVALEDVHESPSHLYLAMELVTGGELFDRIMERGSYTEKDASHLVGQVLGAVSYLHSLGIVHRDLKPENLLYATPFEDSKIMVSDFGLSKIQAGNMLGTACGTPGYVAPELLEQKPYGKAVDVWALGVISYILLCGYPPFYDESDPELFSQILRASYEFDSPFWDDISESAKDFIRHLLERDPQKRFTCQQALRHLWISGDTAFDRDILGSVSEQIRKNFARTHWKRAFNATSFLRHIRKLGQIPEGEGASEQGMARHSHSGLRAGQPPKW

[10] = target: Ephrin type-B receptor 2 (Homo sapiens) (UniProt P29323); conditions: Compound concentration 1000.0 nM
[11] = target: Serine/threonine-protein kinase PAK 2 (Homo sapiens) (UniProt Q13177); conditions: Compound concentration 1000.0 nM
Chain of Serine/threonine-protein kinase PAK 2 (Homo sapiens) (Q13177 whole entry): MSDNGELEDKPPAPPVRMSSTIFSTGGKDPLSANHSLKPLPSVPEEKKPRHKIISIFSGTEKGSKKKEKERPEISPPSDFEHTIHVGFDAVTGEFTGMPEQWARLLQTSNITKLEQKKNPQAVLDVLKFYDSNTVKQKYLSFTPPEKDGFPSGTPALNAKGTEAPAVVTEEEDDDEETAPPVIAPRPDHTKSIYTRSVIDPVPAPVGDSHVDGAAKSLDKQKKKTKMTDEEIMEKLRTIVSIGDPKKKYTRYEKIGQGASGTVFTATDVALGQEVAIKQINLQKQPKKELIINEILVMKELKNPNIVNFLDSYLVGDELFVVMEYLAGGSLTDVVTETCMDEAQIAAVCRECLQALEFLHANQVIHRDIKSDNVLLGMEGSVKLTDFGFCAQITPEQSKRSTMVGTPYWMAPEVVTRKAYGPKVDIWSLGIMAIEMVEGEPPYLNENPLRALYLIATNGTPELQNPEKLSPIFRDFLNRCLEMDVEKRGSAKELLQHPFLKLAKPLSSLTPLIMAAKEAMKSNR

[12] = target: Proto-oncogene tyrosine-protein kinase ROS (Homo sapiens) (UniProt P08922); conditions: Compound concentration 1000.0 nM
[13] = target: Mitogen-activated protein kinase kinase kinase kinase 4 (Homo sapiens) (UniProt O95819); conditions: Compound concentration 1000.0 nM
[14] = target: Inhibitor of nuclear factor kappa-B kinase subunit epsilon (Homo sapiens) (UniProt Q14164); conditions: Compound concentration 1000.0 nM
[15] = target: Ribosomal protein S6 kinase alpha-3 (Homo sapiens) (UniProt P51812); conditions: Compound concentration 1000.0 nM
[16] = target: Delta-type opioid receptor (Homo sapiens, UniProt P41143); experiment: GPCRScan assay: inhibition of DOR; parameters: radioligand conc. used [nm] 1.0 – 2.0, parental cells stable HEK
[17] = target: Macrophage colony-stimulating factor 1 receptor (Homo sapiens) (UniProt P07333); conditions: Compound concentration 1000.0 nM
[18] = target: cAMP-dependent protein kinase catalytic subunit PRKX (Homo sapiens) (UniProt P51817); conditions: Compound concentration 1000.0 nM
Chain of cAMP-dependent protein kinase catalytic subunit PRKX (Homo sapiens) (P51817 whole entry): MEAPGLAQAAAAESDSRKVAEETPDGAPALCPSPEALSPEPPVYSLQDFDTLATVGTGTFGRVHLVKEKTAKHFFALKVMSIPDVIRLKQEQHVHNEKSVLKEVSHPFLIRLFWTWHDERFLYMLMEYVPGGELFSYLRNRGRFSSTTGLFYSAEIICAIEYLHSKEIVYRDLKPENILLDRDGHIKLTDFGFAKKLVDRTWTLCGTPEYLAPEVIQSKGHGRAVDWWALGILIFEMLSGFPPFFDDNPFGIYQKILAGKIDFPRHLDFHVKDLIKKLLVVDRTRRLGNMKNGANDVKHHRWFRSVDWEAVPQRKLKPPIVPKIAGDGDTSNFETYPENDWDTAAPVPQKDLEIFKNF

[19] = target: Phosphatidylinositol 4-phosphate 5-kinase type-1 gamma (Homo sapiens) (UniProt O60331); conditions: Compound concentration 1000.0 nM
Chain of Phosphatidylinositol 4-phosphate 5-kinase type-1 gamma (Homo sapiens) (O60331 whole entry): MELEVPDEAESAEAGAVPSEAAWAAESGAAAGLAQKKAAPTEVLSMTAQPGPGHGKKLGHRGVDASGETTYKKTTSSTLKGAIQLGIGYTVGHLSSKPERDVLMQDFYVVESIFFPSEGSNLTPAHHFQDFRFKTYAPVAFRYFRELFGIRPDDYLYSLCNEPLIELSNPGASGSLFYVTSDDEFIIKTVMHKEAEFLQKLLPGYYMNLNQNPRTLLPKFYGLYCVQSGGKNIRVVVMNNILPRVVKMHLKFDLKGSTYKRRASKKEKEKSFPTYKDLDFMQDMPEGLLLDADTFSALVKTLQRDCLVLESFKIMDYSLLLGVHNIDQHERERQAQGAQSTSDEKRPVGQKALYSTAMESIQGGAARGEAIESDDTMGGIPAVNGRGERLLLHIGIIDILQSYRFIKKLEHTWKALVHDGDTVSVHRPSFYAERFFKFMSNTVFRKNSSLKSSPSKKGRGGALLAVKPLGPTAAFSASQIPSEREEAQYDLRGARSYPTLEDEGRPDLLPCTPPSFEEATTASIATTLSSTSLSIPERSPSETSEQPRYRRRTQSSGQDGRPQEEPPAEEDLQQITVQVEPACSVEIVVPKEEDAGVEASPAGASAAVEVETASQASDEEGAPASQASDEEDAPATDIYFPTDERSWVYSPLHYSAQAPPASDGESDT

[20] = target: Tyrosine-protein kinase Fgr (Homo sapiens) (UniProt P09769); conditions: Compound concentration 1000.0 nM
[21] = target: Activin receptor type-2B (Homo sapiens) (UniProt Q13705); conditions: Compound concentration 1000.0 nM
Chain of Activin receptor type-2B (Homo sapiens) (Q13705 whole entry): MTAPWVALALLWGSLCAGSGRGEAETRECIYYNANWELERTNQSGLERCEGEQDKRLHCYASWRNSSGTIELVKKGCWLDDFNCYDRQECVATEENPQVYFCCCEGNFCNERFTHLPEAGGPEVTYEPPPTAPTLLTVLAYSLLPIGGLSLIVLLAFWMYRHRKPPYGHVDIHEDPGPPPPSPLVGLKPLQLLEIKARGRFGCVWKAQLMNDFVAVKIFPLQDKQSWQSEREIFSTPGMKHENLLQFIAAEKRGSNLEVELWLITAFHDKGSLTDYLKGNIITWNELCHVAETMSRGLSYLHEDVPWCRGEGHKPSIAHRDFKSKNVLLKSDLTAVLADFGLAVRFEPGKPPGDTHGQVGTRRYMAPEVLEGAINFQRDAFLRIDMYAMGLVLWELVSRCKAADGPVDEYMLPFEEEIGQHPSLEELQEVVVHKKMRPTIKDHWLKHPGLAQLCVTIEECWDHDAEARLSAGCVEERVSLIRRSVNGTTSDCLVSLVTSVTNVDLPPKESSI

[22] = target: Mitotic checkpoint serine/threonine-protein kinase BUB1 (Homo sapiens) (UniProt O43683); conditions: Compound concentration 1000.0 nM
[23] = target: Death-associated protein kinase 1 (Homo sapiens) (UniProt P53355); conditions: Compound concentration 1000.0 nM
[24] = target: Mitogen-activated protein kinase 15 (Homo sapiens) (UniProt Q8TD08); conditions: Compound concentration 1000.0 nM
[25] = target: Serine/threonine-protein kinase 25 (Homo sapiens) (UniProt O00506); conditions: Compound concentration 1000.0 nM
[26] = target: Serine/threonine-protein kinase 38-like (Homo sapiens) (UniProt Q9Y2H1); conditions: Compound concentration 1000.0 nM
[27] = target: Beta-2 adrenergic receptor (Homo sapiens) (UniProt P07550); conditions: Compound concentration 10.0 uM
[28] = target: Serine/threonine-protein kinase SIK1 (Homo sapiens) (UniProt P57059); conditions: Compound concentration 1000.0 nM
Chain of Serine/threonine-protein kinase SIK1 (Homo sapiens) (P57059 whole entry): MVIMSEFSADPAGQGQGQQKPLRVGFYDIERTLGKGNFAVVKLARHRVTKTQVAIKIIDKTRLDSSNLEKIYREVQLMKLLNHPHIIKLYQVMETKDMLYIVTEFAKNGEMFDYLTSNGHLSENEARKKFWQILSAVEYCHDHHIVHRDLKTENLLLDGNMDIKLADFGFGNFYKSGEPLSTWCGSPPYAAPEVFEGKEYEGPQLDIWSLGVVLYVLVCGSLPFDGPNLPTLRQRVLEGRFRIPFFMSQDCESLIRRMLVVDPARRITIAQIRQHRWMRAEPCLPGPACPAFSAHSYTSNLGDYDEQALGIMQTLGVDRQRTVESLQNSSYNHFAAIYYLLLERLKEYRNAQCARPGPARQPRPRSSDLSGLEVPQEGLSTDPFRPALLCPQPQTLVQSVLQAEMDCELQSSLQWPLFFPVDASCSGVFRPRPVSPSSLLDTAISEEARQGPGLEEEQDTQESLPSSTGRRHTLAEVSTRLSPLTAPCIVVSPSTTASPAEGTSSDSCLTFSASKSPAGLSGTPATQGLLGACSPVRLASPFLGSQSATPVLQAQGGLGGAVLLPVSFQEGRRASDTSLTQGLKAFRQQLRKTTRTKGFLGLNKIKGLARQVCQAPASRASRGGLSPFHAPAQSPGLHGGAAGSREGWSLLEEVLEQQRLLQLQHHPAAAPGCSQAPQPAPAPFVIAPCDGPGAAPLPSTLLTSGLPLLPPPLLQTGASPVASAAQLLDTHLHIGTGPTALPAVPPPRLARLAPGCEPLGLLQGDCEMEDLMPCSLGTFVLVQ

[29] = target: Phosphatidylinositol 3-kinase catalytic subunit type 3 (Homo sapiens) (UniProt Q8NEB9); conditions: Compound concentration 1000.0 nM
[30] = target: Tyrosine-protein kinase ABL1 (Homo sapiens) (UniProt P00519); conditions: Compound concentration 1000.0 nM
[31] = target: T1, 5-hydroxytryptamine receptor 3A (Homo sapiens) (UniProt P46098); conditions: Compound concentration 10.0 uM
T1 sequence (whole entry): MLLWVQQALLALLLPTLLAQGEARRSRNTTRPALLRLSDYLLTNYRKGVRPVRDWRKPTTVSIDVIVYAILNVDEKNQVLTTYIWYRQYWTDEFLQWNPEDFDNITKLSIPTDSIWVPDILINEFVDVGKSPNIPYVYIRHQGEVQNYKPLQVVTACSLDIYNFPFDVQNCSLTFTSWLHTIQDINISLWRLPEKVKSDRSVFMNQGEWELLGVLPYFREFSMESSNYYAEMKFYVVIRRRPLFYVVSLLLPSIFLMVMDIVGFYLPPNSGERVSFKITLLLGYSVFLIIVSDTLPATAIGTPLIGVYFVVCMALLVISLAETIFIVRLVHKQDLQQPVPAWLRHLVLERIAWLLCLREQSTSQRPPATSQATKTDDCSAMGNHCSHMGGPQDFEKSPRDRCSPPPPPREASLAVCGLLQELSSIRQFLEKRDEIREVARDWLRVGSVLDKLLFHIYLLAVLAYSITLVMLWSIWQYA

[32] = target: Mitogen-activated protein kinase kinase kinase 2 (Homo sapiens) (UniProt Q9Y2U5); conditions: Compound concentration 1000.0 nM
[33] = target: Aurora kinase B (Homo sapiens) (UniProt Q96GD4); conditions: Compound concentration 1000.0 nM
Chain of Aurora kinase B (Homo sapiens) (Q96GD4 whole entry): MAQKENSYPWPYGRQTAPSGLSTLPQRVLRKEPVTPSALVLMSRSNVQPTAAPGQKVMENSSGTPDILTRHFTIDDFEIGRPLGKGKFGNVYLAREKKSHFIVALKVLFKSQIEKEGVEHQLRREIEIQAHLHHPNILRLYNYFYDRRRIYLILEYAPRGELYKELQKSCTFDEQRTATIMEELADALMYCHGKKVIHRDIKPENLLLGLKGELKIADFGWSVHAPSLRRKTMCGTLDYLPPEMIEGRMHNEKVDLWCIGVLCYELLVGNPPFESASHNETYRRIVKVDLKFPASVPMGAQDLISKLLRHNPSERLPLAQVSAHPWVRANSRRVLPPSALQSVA

[34] = target: Bone morphogenetic protein receptor type-2 (Homo sapiens) (UniProt Q13873); conditions: Compound concentration 1000.0 nM
[35] = target: Cyclin-dependent kinase 13 (Homo sapiens) (UniProt Q14004); conditions: Compound concentration 1000.0 nM
[36] = target: Serine/threonine-protein kinase 16 (Homo sapiens) (UniProt O75716); conditions: Compound concentration 1000.0 nM
[37] = system: Mast/stem cell growth factor receptor Kit (Homo sapiens), P10721 [V559D,T670I]; conditions: Compound concentration 1000.0 nM
[38] = system: Tyrosine-protein kinase ABL1 (Homo sapiens), P00519 [H396P]; conditions: Compound concentration 1000.0 nM
[39] = target: cAMP-dependent protein kinase catalytic subunit beta (Homo sapiens) (UniProt P22694); conditions: Compound concentration 1000.0 nM

Chain of Serine/threonine-protein kinase Nek6 (Homo sapiens) (Q9HC98 whole entry): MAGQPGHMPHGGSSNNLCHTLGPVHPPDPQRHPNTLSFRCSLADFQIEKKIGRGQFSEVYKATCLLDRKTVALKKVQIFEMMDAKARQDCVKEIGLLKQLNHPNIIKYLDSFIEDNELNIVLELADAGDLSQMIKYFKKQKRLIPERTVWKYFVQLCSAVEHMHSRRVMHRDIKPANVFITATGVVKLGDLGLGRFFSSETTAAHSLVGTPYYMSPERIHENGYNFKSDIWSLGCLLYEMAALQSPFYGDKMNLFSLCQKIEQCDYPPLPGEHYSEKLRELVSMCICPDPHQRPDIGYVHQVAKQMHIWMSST

CN(C)CC#Cc1ccc(OCCCc2sc(N3CCc4cccc(C(=O)Nc5nc6ccccc6s5)c4C3)nc2C(=O)O)c(F)c1 [A-1155463]
active: inhibition [31] 85.4%
2.12 µM: Ki [16]
inactive: residual activity [1] 62% | residual activity [2] 100% | residual activity [3] 92% | residual activity [4] 93% | residual activity [5] 78% | residual activity [6] 79% | residual activity [7] 100% | residual activity [8] 100% | residual activity [9] 100% | residual activity [10] 100% | residual activity [11] 93% | residual activity [12] 93% | residual activity [13] 96% | residual activity [14] 100% | residual activity [15] 97% | residual activity [17] 87% | residual activity [18] 98% | residual activity [19] 100% | residual activity [20] 100% | residual activity [21] 100% | residual activity [22] 81% | residual activity [23] 91% | residual activity [24] 100% | residual activity [25] 100% | residual activity [26] 83% | inhibition [27] 27.1% | residual activity [28] 100% | residual activity [29] 100% | residual activity [30] 93% | residual activity [32] 75% | residual activity [33] 79% | residual activity [34] 100% | residual activity [35] 100% | residual activity [36] 92% | residual activity [37] 95% | residual activity [38] 100% | residual activity [39] 100%
